Experimental data: PubChem BioAssay (NCI)
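Following 48 hours of exposure in 96-well plates, responses at five concentrations were used to interpolate endpoints linearly. Here, GI50 denotes the concentration required for 50% inhibition of growth. The concentration for full growth arrest is given as TGI.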

Columns and labels:
Assay in all cases: NCI anticancer screen, dose series, 48 h; in the data active means GI50 below about 0.43 µM; inactive means the rest
ACHN renal = system: ACHN renal
UO-31 renal = system: UO-31 renal
SK-MEL-2 melanoma = system: SK-MEL-2 melanoma
EKVX NSCLC = system: EKVX NSCLC
SNB-19 CNS = system: SNB-19 CNS
LOX IMVI melanoma = system: LOX IMVI melanoma
SF-539 CNS = system: SF-539 CNS
OVCAR-3 ovarian = system: OVCAR-3 ovarian
CAKI-1 renal = system: CAKI-1 renal
NCI-H522 lung = system: NCI-H522 lung
KM20L2 colon = system: KM20L2 colon
DLD-1 colon = system: DLD-1 colon
SF-268 CNS = system: SF-268 CNS
OVCAR-4 ovarian = system: OVCAR-4 ovarian
SN12C renal = system: SN12C renal
HCT-15 colon = system: HCT-15 colon
SK-MEL-5 melanoma = system: SK-MEL-5 melanoma
A549 NSCLC = system: A549 NSCLC
RXF 393 renal = system: RXF 393 renal
HOP-18 NSCLC = system: HOP-18 NSCLC
NCI-H23 lung = system: NCI-H23 lung
NCI-H226 lung = system: NCI-H226 lung
OVCAR-5 ovarian = system: OVCAR-5 ovarian
SF-295 CNS = system: SF-295 CNS
IGROV1 ovarian = system: IGROV1 ovarian

CC(=O)[CH-]C(=O)c1ccccc1.CC(=O)[CH-]C(=O)c1ccccc1.CC[O-].CC[O-].[Hf+4]
> 100 µM: TGI (ACHN renal) | TGI (UO-31 renal) | TGI (SK-MEL-2 melanoma) | TGI (EKVX NSCLC) | TGI (SNB-19 CNS) | TGI (LOX IMVI melanoma) | TGI (SF-539 CNS) | TGI (OVCAR-3 ovarian) | TGI (CAKI-1 renal) | TGI (NCI-H522 lung) | TGI (KM20L2 colon) | TGI (DLD-1 colon) | TGI (SF-268 CNS) | TGI (OVCAR-4 ovarian) | TGI (SN12C renal) | TGI (HCT-15 colon) | TGI (SK-MEL-5 melanoma) | TGI (A549 NSCLC) | TGI (RXF 393 renal) | TGI (HOP-18 NSCLC) | TGI (NCI-H23 lung) | TGI (NCI-H226 lung) | TGI (OVCAR-5 ovarian) | TGI (SF-295 CNS) | TGI (IGROV1 ovarian)
inactive: GI50 (ACHN renal) > 100 µM | GI50 (UO-31 renal) > 100 µM | GI50 (SK-MEL-2 melanoma) > 100 µM | GI50 (EKVX NSCLC) 38.2 µM | GI50 (SNB-19 CNS) > 100 µM | GI50 (LOX IMVI melanoma) > 100 µM | GI50 (SF-539 CNS) > 100 µM | GI50 (OVCAR-3 ovarian) > 100 µM | GI50 (CAKI-1 renal) > 100 µM | GI50 (NCI-H522 lung) > 100 µM | GI50 (KM20L2 colon) > 100 µM | GI50 (DLD-1 colon) > 100 µM | GI50 (SF-268 CNS) > 100 µM | GI50 (OVCAR-4 ovarian) > 100 µM | GI50 (SN12C renal) > 100 µM | GI50 (HCT-15 colon) > 100 µM | GI50 (SK-MEL-5 melanoma) > 100 µM | GI50 (A549 NSCLC) > 100 µM | GI50 (RXF 393 renal) > 100 µM | GI50 (HOP-18 NSCLC) > 100 µM | GI50 (NCI-H23 lung) > 100 µM | GI50 (NCI-H226 lung) > 100 µM | GI50 (OVCAR-5 ovarian) > 100 µM | GI50 (SF-295 CNS) > 100 µM | GI50 (IGROV1 ovarian) > 100 µM
